Read-outs that look alike come from different tables or passages of the source.
Experiments:
[1] = tested on: dogs with induced atrial fibrillation; assay type: in vivo, dog
Experimental: Atrial Fibrillation Model: A venous catheter was placed in a peripheral vessel (i.e., cephalic) for administration of anesthetic. […] Following induction, animals were endotracheally intubated and mechanically ventilated (˜12 breaths/minute with a tidal volume of 200-300 mL). Subsequently, a cut-down on a jugular vein permitted introduction of a pacing lead into the right atrium. Transthoracic electrodes forming ECG lead II were placed. For test/vehicle article delivery, a 4F catheter was introduced through the trachea and wedged into a small airway, and a venous catheter was placed in a peripheral vessel (i.e., cephalic). […] Approximately 5 min after administration of this parasympathomimetic was started; the following experiments were performed: […] Observations were made for up to 10 minutes. […] Vehicle was only water.

healthy volunteers [2] = test: Phase 1 (FLE-001) pulmonary safety: spirometry, SpO2, auscultation, chest x-ray; assay type: in vivo, human
Experimental: Pulmonary safety was assessed by performing lung spirometry tests and measuring peripheral oxygen saturation (SpO2%) prior to dosing and at various times after completion of the inhalation. Lung spirometry tests evaluated all lung function parameters, including forced vital capacity (FVC), forced expiratory volume in 1 second (FEV1), peak expiratory flow (PEF), and forced expiratory flow at 25% and 75% intervals (FEF25-75). Auscultation and respiration rate were also measured prior to dosing and at various times after inhalation. Chest x-rays were performed on subjects before and after flecainide inhalation.

porcine model = test: Slow versus rapid IV infusion, porcine model; assay type: in vivo, pig; settings: slow (10 min) vs rapid (2 min) IV infusion
healthy volunteers [3] = settings: in vivo
Experimental: (§1) 3 cohorts of subjects, in total 34 healthy adult volunteers, were recruited for Part A study.
(§2) Part B was an open label non-randomized crossover in a cohort of 6 evaluable healthy adult volunteers.
In addition, the effects of changing posture from semi-recumbent to seated upright, vice-versa and during inhalation on HR and BP were assessed (Cohort 5).

healthy volunteers [4] = settings: both, human, in vivo
Source text: as §1, §2
Adverse events were monitored and recorded.

[5] = Cohort 1, 20 mg eTLD, 3 hours Post-dose
[6] = Cohort 1, 20 mg eTLD, 12 hours Pre-dose
[7] = Cohort 1, 20 mg eTLD, 24 hours Post-dose
[8] = Cohort 2, 40 mg eTLD, 3 hours Post-dose
[9] = Cohort 2, 40 mg eTLD, 12 hours Pre-dose
[10] = Cohort 2, 40 mg eTLD, 24 hours Post-dose

pH of solution in water (2.6 mg/mL solution): 5.0
appearance of solution (diltiazem hydrochloride 50 mg/ml, flecainide acetate 30 mg/ml in distilled water): clear with no visible particulate matter
dose dependence of magnitude of HR increases (healthy volunteers [3]): not dose-dependent
HR (healthy volunteers [3]; iv, 2 mg/kg): An increase in HR was observed
systolic and diastolic BP (healthy volunteers [3]; iv, 2 mg/kg): Decreases in systolic and diastolic BP
Structure (SMILES): O=C(NCC1CCCCN1)c1cc(OCC(F)(F)F)ccc1OCC(F)(F)F (stereo not shown) [flecainide]
ECG trace: Afib conversion ([1]; 2 mg/kg (FIG. 12)): Afib converting as soon as dosing occurred
ECG trace: Afib conversion ([1]; 4 mg/kg by intra-tracheal instillation (FIG. 11)): Afib converting into normal sinus rhythm
ventricular rate ([1]; large pulmonary doses): slower ventricular rates
effect on induced atrial fibrillation ([1]; pulmonary (IT) administration): rapidly converted the Atrial Fibrillation to normal sinus rhythm
conversion of induced atrial fibrillation to normal sinus rhythm ([1]; pulmonary dose 2-4 mg/kg body weight): converted the induced atrial fibrillation to normal sinus rhythm
cardiovascular effect when given by intratracheal instillation ([1]; summary of Example 2): clear cardiovascular effect
Oxygen Saturation (SpO2%), mean (healthy volunteers [2]; Cohort 1, 20 mg eTLD, 15 min Postdose): 97%
Oxygen Saturation (SpO2%), mean (healthy volunteers [2]; Cohort 1, 20 mg eTLD, 30 min Postdose): 97%
Oxygen Saturation (SpO2%), mean (healthy volunteers [2]; Cohort 1, 20 mg eTLD, 45 min Postdose): 97%
Oxygen Saturation (SpO2%), mean (healthy volunteers [2]; Cohort 1, 20 mg eTLD, 60 min Postdose): 97%
Oxygen Saturation (SpO2%), mean (healthy volunteers [2]; Cohort 1, 20 mg eTLD, 75 min Postdose): 98%
Oxygen Saturation (SpO2%), mean (healthy volunteers [2]; Cohort 1, 20 mg eTLD, 90 min Postdose): 98%
Oxygen Saturation (SpO2%), mean (healthy volunteers [2]; Cohort 1, 20 mg eTLD, 105 min Postdose): 97%
Oxygen Saturation (SpO2%), mean (healthy volunteers [2]; Cohort 1, 20 mg eTLD, 120 min Postdose): 98%
FEF25-75, mean (healthy volunteers [2]; [5]): 5.48 L/s
FEV1, mean (healthy volunteers [2]; [5]): 5.27 L
FVC, mean (healthy volunteers [2]; [5]): 6.42 L
PEF, mean (healthy volunteers [2]; [5]): 10.87 L/s
FEF25-75, mean (healthy volunteers [2]; [6]): 5.38 L/s
FEV1, mean (healthy volunteers [2]; [6]): 5.26 L
FVC, mean (healthy volunteers [2]; [6]): 6.02 L
PEF, mean (healthy volunteers [2]; [6]): 11.30 L/s
FEF25-75, mean (healthy volunteers [2]; [7]): 5.40 L/s
FEV1, mean (healthy volunteers [2]; [7]): 5.18 L
FVC, mean (healthy volunteers [2]; [7]): 6.36 L
PEF, mean (healthy volunteers [2]; [7]): 11.09 L/s
Oxygen Saturation (SpO2%), mean (healthy volunteers [2]; Cohort 1, 20 mg eTLD, Predose): 98%
Oxygen Saturation (SpO2%), mean (healthy volunteers [2]; Cohort 2, 40 mg eTLD, 15 min Postdose): 96%
Oxygen Saturation (SpO2%), mean (healthy volunteers [2]; Cohort 2, 40 mg eTLD, 30 min Postdose): 97%
Oxygen Saturation (SpO2%), mean (healthy volunteers [2]; Cohort 2, 40 mg eTLD, 45 min Postdose): 96%
Oxygen Saturation (SpO2%), mean (healthy volunteers [2]; Cohort 2, 40 mg eTLD, 60 min Postdose): 96%
Oxygen Saturation (SpO2%), mean (healthy volunteers [2]; Cohort 2, 40 mg eTLD, 75 min Postdose): 97%
Oxygen Saturation (SpO2%), mean (healthy volunteers [2]; Cohort 2, 40 mg eTLD, 90 min Postdose): 97%
Oxygen Saturation (SpO2%), mean (healthy volunteers [2]; Cohort 2, 40 mg eTLD, 105 min Postdose): 97%
Oxygen Saturation (SpO2%), mean (healthy volunteers [2]; Cohort 2, 40 mg eTLD, 120 min Postdose): 97%
FEF25-75, mean (healthy volunteers [2]; [8]): 4.34 L/s
FEV1, mean (healthy volunteers [2]; [8]): 4.96 L
FVC, mean (healthy volunteers [2]; [8]): 6.19 L
PEF, mean (healthy volunteers [2]; [8]): 10.66 L/s
FEF25-75, mean (healthy volunteers [2]; [9]): 5.00 L/s
FEV1, mean (healthy volunteers [2]; [9]): 5.04 L
FVC, mean (healthy volunteers [2]; [9]): 6.18 L
PEF, mean (healthy volunteers [2]; [9]): 10.83 L/s
FEF25-75, mean (healthy volunteers [2]; [10]): 4.80 L/s
FEV1, mean (healthy volunteers [2]; [10]): 5.08 L
FVC, mean (healthy volunteers [2]; [10]): 6.39 L
PEF, mean (healthy volunteers [2]; [10]): 11.14 L/s
Oxygen Saturation (SpO2%), mean (healthy volunteers [2]; Cohort 2, 40 mg eTLD, Predose): 97%
respiratory rate (healthy volunteers [2]; Cohorts 1, 2, 3, 5): minimal or no changes
standard lung spirometry measurements and peripheral O2 saturation (healthy volunteers [2]; Cohorts 1, 2, 3, 5): normal before and after
SpO2 pre-dose and post-dose values (healthy volunteers [2]; Cohorts 1 and 2): 97-98%
lung function parameters (FVC, FEV1, PEF, FEF25-75) pre-dose and post-dose (healthy volunteers [2]; Cohorts 1 and 2): within the normal range for the population studied
Auscultation (healthy volunteers [2]; inhaled 20, 30, 40 mg eTLD): normal
Chest x-rays (healthy volunteers [2]; inhaled 20, 30, 40 mg eTLD): normal and showed no changes
respiration rate (healthy volunteers [2]; inhaled 20, 30, 40 mg eTLD): No changes
correlation of venous plasma levels with QRS duration (porcine model): positively correlated with QRS duration
magnitude of blood pressure changes vs placebo (healthy volunteers [3]): similar
Adverse Event: Cough (healthy volunteers [4]): 1
Adverse Event: Lightheadedness (healthy volunteers [4]): 1
Number of Moderate or Severe TEAEs (healthy volunteers [4]): 3
Number of Study Drug Related TEAEs (healthy volunteers [4]): 43
Number of Study Drug Related, Moderate or Severe TEAEs (healthy volunteers [4]): 2
